The source of these data is patent publication US20060045953A1 (priority 2004, published 2006).

The target of the assay is T1, hT1R2/hT1R3 sweet receptor (Homo sapiens, UniProt Q7RTX0+Q8TE23).
T1 construct: expressed in transfected cells; host or cells: HEK293 derivative stably expressing Gα15, clone S-9
T1 sequence (Q8TE23 20-839): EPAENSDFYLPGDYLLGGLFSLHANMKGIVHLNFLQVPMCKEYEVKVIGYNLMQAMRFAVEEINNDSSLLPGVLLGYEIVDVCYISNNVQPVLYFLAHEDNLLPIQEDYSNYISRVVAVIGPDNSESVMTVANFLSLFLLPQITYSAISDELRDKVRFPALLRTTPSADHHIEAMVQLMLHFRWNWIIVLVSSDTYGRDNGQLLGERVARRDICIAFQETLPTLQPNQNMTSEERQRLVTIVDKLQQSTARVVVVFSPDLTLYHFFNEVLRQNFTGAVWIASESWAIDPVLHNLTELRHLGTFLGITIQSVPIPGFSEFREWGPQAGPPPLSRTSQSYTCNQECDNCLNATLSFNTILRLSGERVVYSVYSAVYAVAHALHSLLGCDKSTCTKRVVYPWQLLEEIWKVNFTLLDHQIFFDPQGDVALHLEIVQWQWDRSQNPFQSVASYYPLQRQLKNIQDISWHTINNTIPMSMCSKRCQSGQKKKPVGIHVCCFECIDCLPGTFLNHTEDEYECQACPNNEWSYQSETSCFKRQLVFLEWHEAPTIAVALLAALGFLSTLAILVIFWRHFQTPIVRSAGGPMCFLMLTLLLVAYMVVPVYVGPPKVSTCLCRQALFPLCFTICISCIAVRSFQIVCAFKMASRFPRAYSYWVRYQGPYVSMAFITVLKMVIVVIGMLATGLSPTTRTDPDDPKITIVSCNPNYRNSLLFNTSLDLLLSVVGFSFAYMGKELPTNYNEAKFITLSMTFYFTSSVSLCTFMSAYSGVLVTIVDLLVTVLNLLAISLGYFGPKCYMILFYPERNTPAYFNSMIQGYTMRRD
T1 sequence (Q7RTX0 21-852): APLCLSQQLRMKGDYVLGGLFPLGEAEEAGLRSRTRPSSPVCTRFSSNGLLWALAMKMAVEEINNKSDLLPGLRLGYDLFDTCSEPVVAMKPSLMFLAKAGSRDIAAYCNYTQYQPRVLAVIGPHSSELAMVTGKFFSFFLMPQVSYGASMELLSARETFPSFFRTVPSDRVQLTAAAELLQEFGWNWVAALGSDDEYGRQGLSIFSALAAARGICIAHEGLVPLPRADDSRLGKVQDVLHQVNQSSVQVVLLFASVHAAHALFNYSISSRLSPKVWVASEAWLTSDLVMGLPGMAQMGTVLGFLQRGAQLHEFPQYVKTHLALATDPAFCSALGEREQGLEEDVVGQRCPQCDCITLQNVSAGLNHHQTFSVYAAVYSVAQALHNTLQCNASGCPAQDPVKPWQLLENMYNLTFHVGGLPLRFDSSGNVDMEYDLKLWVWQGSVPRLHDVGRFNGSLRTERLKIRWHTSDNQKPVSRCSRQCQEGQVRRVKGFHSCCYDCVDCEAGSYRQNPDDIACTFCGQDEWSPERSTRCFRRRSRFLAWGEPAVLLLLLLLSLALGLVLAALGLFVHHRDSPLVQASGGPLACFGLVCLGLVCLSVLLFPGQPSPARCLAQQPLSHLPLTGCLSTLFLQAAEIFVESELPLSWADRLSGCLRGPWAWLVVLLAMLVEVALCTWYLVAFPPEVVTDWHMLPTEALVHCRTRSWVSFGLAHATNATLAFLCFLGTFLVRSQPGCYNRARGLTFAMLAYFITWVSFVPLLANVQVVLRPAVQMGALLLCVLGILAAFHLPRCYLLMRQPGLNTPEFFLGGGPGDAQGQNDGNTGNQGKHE
Put plainly: In vitro hT1R2/hT1R3 sweet taste receptor activation assay (FLIPR, dose response). It is filed as cell-based. As to the method:
Activity was determined using an automated fluorometric imaging assay on a FLIPR instrument (Fluorometric Intensity Plate Reader, Molecular Devices, Sunnyvale, Calif.) (designated FLIPR assay). […] S-9 cells were grown for 24 hours at 37° C. S-9 cells were then loaded with the calcium dye Fluo-3AM (Molecular Probes, Eugene, Oreg.), 4 µM in a phosphate buffered saline (D-PBS) (Invitrogen, Carlsbad, Calif.), for 1 hour at room temperature. After replacement with 25 µl D-PBS, stimulation was performed in the FLIPR instrument and at room temperature by the addition of 25 µl D-PBS supplemented with different stimuli at concentrations corresponding to twice the desired final level.
For dose-responses analysis, stimuli were presented in duplicates at 10 different concentrations ranging from 60 nM to 30 µM. Activities were normalized to the response obtained with 400 mM D-fructose, a concentration that elicits maximum receptor response. EC50s were determined using a non-linear regression algorithm (using a Senomyx, Inc. software), where the Hill slope, bottom asymptotes and top asymptotes were allow to vary.

The mark [1] stands for this setting: Table E, Sweet Enhancer Amides, read-out: Sweet EC50.
Setting [2] is: read-out: EC50 for activation of a hT1R2/hT1R3 sweet receptor expressed in an HEK293 cell line.

pEC50: −log10 of the molar value. Read-outs that look alike come from different tables or passages of the source.

Turning to `CCC(CC)NC(=O)c1cccc(Cl)c1Cl` [Example E75, 2,3-dichloro-N-(pentan-3-yl)benzamide], under setting [1], the pEC50 is 5.42.

For the compound `Cc1cc(Cl)ccc1NC(=O)N1Cc2ccccc2C1` [Example 172, N-(4-chloro-2-methylphenyl)isoindoline-2-carboxamide], the pEC50 under setting [2] was 6.05.

For the compound `O=C(Nc1ccc(Cl)cc1Cl)N1Cc2ccccc2C1` [Example E107, N-(2,4-dichlorophenyl)isoindoline-2-carboxamide], the pEC50 under setting [1] was 5.38.

As to `N#Cc1c(F)cccc1NC(=O)c1ccc(Cl)cc1Cl` [Example E90, 2,4-Dichloro-N-(2-cyano-3-fluoro-phenyl)-benzamide], the pEC50 under setting [1] was 5.57.

Turning to `Cc1c(F)c(F)c(C(=O)N[C@H](C)C(C)C)c(F)c1F` [Example E47, (R)-2,3,5,6-tetrafluoro-4-methyl-N-(3-methylbutan-2-yl)benzamide], the pEC50 under setting [1] was 5.90.

As to `O=C(N[C@@H]1CCCc2ccccc21)c1cccc(O)c1O` [Example E17, (R)-2,3-dihydroxy-N-(1,2,3,4-tetrahydronaphthalen-1-yl)benzamide], the pEC50 under setting [1] is 5.50.

As for `Cc1cc(Cl)ccc1NC(=O)N1Cc2cccc(C)c2C1` [Example E114, N-(4-chloro-2-methylphenyl)-4-methylisoindoline-2-carboxamide], under setting [1], the pEC50 is 6.72.

Take `N#Cc1ccc(NC(=O)c2c(Cl)cccc2Cl)cc1` [Example E91, 2,6-Dichloro-N-(4-cyano-phenyl)-benzamide]: the pEC50 under setting [1] was 5.56.

In the case of `Cc1ccc(NC(=O)N2Cc3cccc(C)c3C2)c(C)c1` [Example E115, N-(2,4-dimethylphenyl)-4-methylisoindoline-2-carboxamide], under setting [1], the pEC50 was 6.60.

Take `COc1c(Cl)cc(Cl)c(OC)c1C(=O)NC1CCCCC1C` (stereo not drawn) [Example E35, 3,5-dichloro-2,6-dimethoxy-N-(2-methylcyclohexyl)benzamide]: the pEC50 under setting [1] was 6.15.

Regarding `Cc1cc([N+](=O)[O-])ccc1NC(=O)N1Cc2ccccc2C1` [Example E100, N-(2-methyl-4-nitrophenyl)isoindoline-2-carboxamide], the pEC50 under setting [1] was 5.89.

In the case of `CCCc1nocc1C(=O)N[C@@H]1CCCc2c(OC)cccc21` [Example 188, (R)-3-Propyl-N-(5-methoxy-1,2,3,4-tetrahydronaphthalen-1-yl)isoxazole-4-carboxamide], the pEC50 under setting [2] was 6.62.

For the compound `CC(C)(C)c1csc(NC(=O)c2ccncc2)n1` [Example E96, N-(4-tert-Butyl-thiazol-2-yl)-isonicotinamide], the pEC50 under setting [1] was 5.43.

Regarding `O=C(N[C@@H]1CCOc2ccccc21)c1cccc(Cl)c1O` [Example 185, (R)-3-Chloro-N-(3,4-dihydro-2H-chromen-4-yl)-2-hydroxybenzamide], the pEC50 under setting [2] is 5.99.

Take `Cc1cccc(C)c1C(=O)N[C@H]1CCCc2ccccc21` [Example E14, (S)-2,6-dimethyl-N-(1,2,3,4-tetrahydronaphthalen-1-yl)benzamide]: under setting [1], the pEC50 is 5.54.

For the compound `Cc1cccc2c1CN(C(=O)Nc1ccc3c(c1)OCO3)C2` [Example 199, N-(3,4-(methylenedioxy)phenyl)-4-methylisoindoline-2-carboxamide], the pEC50 under setting [2] was 6.02.

Regarding `Cc1nocc1C(=O)NC1CCC(C)c2ccccc21` (stereo not drawn) [Example E11, 3-methyl-N-(4-methyl-1,2,3,4-tetrahydronaphthalen-1-yl)isoxazole-4-carboxamide], under setting [1], the pEC50 was 5.61.

As for `O=C(NC1CCCc2c(O)cccc21)c1cccc(Cl)c1O` (stereo not drawn) [Example E3, 3-chloro-2-hydroxy-N-(5-hydroxy-1,2,3,4-tetrahydronaphthalen-1-yl)benzamide], the pEC50 under setting [1] is 5.99.

On to `CC(C)[C@H](C)NC(=O)c1c(F)c(F)c(-c2ccccc2)c(F)c1F` [Example E131, (S)-2,3,5,6-tetrafluoro-N-(3-methylbutan-2-yl)-4-phenyl benzamide], for which the pEC50 under setting [1] is 6.36.

In the case of `CC1CCCCC1NC(=O)c1ccc(F)c(C(F)(F)F)c1` (stereo not drawn) [Example E32, 4-fluoro-N-(2-methylcyclohexyl)-3-(trifluoromethyl)benzamide], under setting [1], the pEC50 was 6.29.

Turning to `COc1cccc2c1CCC[C@H]2NC(=O)c1conc1C` [Example 190, (R)-3-methyl-N-(5-methoxy-1,2,3,4-tetrahydronaphthalen-1-yl)isoxazole-4-carboxamide], the pEC50 under setting [2] is 6.02.

On to `CC1CCCCC1NC(=O)c1ccc(F)c(F)c1` (stereo not drawn) [Example E81], for which, under setting [1], the pEC50 is 5.36.

For `Cc1c(F)c(F)c(C(=O)NC2CCCC2)c(F)c1F` [Example E58, N-cyclopentyl-2,3,5,6-tetrafluoro-4-methylbenzamide], the pEC50 under setting [1] was 5.65.

`Cc1nocc1C(=O)N[C@@H]1CCCc2ccccc21` [Example E25, (R)-3-methyl-N-(1,2,3,4-tetrahydronaphthalen-1-yl)isoxazole-4-carboxamide]: the pEC50 under setting [1] is 5.11.

Regarding `Cc1c(F)c(F)c(C(=O)N[C@@H]2CC3CCC2C3)c(F)c1F` (stereo partly drawn) [Example E41, N-((2R)-bicyclo[2.2.1]heptan-2-yl)-2,3,5,6-tetrafluoro-4-methylbenzamide], the pEC50 under setting [1] was 5.99.

Regarding `COc1cccc2c1CCCC2NC(=O)c1conc1C` (stereo not drawn) [Example E12, N-(5-methoxy-1,2,3,4-tetrahydronaphthalen-1-yl)-3-methylisoxazole-4-carboxamide], the pEC50 under setting [1] is 5.55.

With `Cc1cc(F)c(NC(=O)N2Cc3cccc(C)c3C2)c(F)c1` [Example 194, N-(2,6-difluoro-4-methylphenyl)-4-methylisoindoline-2-carboxamide], under setting [2], the pEC50 was 7.22.

Regarding `COc1cccc2c1CCCC2NC(=O)c1cccc(-c2ccccc2)c1O` (stereo not drawn) [Example E123, 2-hydroxy-N-(5-methoxy-1,2,3,4-tetrahydronaphthalen-1-yl)-3-phenylbenzamide], under setting [1], the pEC50 is 5.59.

As for `N#Cc1ccccc1NC(=O)N1CCc2ccccc2C1` [Example E110, N-(2-cyanophenyl)-3,4-dihydroisoquinoline-2(1H)-carboxamide], the pEC50 under setting [1] is 5.60.

With `CC1CCCCC1NC(=O)c1ccc(F)c(Cl)c1` (stereo not drawn) [Example E53, 3-chloro-4-fluoro-N-(2-methylcyclohexyl)benzamide], the pEC50 under setting [1] is 5.77.

For `C=CCc1c(F)c(F)c(C(=O)N[C@@H](C)C(C)C)c(F)c1F` [Example 191, (S)-4-allyl-2,3,5,6-tetrafluoro-N-(3-methylbutan-2-yl)benzamide], the pEC50 under setting [2] is 6.85.

On to `CCOc1c(F)c(F)c(C(=O)N[C@@H](C)C(C)C)c(F)c1F` [Example E133, (S)-4-ethoxy-2,3,5,6-tetrafluoro-N-(3-methylbutan-2-yl)benzamide], for which, under setting [1], the pEC50 was 6.22.

With `CC1CCc2ccccc2C1NC(=O)c1cccc(Cl)c1O` (stereo not drawn) [Example 179, 3-Chloro-2-hydroxy-N-(2-methyl-1,2,3,4-tetrahydronaphthalen-1-yl)benzamide], the pEC50 under setting [2] was 6.42.
